# According to patent publication US6869940B2, “Malignant tumor metastasis inhibitors” (Chugai Seiyaku Kabushiki Kaisha, priority 1995, dated 2005):
# Tested on: Hara cells derived from human lung cancer
# Assay: Bone metastasis model: Hara cells transplanted into the heart of nude mice, preventive effect of OCT
# Assay type: in vivo
# Excerpt: Preventive effects of OCT on bone metastases were studied using a bone metastasis model prepared with Hara cells derived from human lung cancer.
# A test of preventive effects of OCT on bone metastases of Hara cells was started on the 20th day after 5×10^5 Hara cells were transplanted into the heart of nude mice, at which time the body weight of the animals began to slightly decrease but neither rise in Ca nor clear bone metastasis image on soft X-rays was observed. On that day, the animals were grouped by body weight, and a vehicle (n=9) or 1 μg/kg of OCT (n=9) was orally administered to each animal 4 to 5 times per week for six weeks (29 times in total). At different instants during the administration period, the body weight and Ca level in blood were measured and soft X-ray photographs were taken.
# [1] = after 15 doses on the 22nd day after starting the test, 1 μg/kg OCT orally, n=9
# [2] = after 20 doses on the 29th day after starting the test, 1 μg/kg OCT orally, n=9
# [3] = first day of the test, 1 μg/kg OCT orally, n=9
compound,measurement,setting,value
"C=C1/C(=C\C=C2/CCC[C@@]3(C)C2CC[C@@H]3[C@H](C)OCCC(C)(C)O)C[C@@H](O)C[C@@H]1O (stereo partly drawn) [OCT, 22-oxa-1α, 25-dihydroxyvitamin D3]",effect on rise in Ca level in blood,1 μg/kg OCT orally vs vehicle group,tendency to suppress the rise in Ca level in blood
same,death,"1 μg/kg OCT orally, n=9, in the vehicle group four animals died by the 42nd day",no death was observed
same,effect on body weight decrease,"29th day, 1 μg/kg OCT orally vs vehicle group, p<0.05",significantly suppressed body weight decrease
same,Ca level in blood,[1],1.37 ± 0.04 mM
same,body weight,[1],24.51 ± 1.27 g
same,Ca level in blood,[2],1.34 ± 0.16 mM
same,body weight,[2],25.00 ± 1.20 g
same,bone metastasis image on soft X-ray photographs,"during the administration period (six weeks), 1 μg/kg OCT orally, n=9, vehicle group: four animals in total",no bone metastasis image was observed
same,Ca level in blood,[3],1.32 ± 0.04 mM
same,body weight,[3],23.61 ± 1.57 g
